Data on 3 molecules can be found in patent US20260008768A1, “UREA DERIVATIVES FOR INHIBITING NLRP3 AND USES THEREOF” (VENTUS THERAPEUTICS U.S., INC., priority 2023, published 2026).

pIC50: −log10 of the molar value. Bounds are passed on as bounds.

Broadly, the pIC50 is −log10 of the IC50, conventionally taken in molar units.

The assay deals with human NLRP3 (Homo sapiens, UniProt Q96P20). As to the kind of experiment: Human PBMC NLRP3 Assay (LPS priming, ATP stimulation, cytokine measurement). It is filed as cell-based. Also on record: host or cells: human PBMCs (A2); human whole blood from healthy volunteers (A3). The settings on record: for pIC50: human PBMC, LPS + ATP. A digest of the protocol: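 Human PBMCs (5×10^4/well) primed with 100 ng/ml LPS for 4 h, then given compound for 30 min and stimulated with 5 mM ATP for 1 h at 37° C. Supernatant cytokines measured on the Mesoscale platform to give IC50. For TNFα selectivity, compound was added 30 min before LPS priming.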
Sequence of human NLRP3 (Q96P20 whole entry): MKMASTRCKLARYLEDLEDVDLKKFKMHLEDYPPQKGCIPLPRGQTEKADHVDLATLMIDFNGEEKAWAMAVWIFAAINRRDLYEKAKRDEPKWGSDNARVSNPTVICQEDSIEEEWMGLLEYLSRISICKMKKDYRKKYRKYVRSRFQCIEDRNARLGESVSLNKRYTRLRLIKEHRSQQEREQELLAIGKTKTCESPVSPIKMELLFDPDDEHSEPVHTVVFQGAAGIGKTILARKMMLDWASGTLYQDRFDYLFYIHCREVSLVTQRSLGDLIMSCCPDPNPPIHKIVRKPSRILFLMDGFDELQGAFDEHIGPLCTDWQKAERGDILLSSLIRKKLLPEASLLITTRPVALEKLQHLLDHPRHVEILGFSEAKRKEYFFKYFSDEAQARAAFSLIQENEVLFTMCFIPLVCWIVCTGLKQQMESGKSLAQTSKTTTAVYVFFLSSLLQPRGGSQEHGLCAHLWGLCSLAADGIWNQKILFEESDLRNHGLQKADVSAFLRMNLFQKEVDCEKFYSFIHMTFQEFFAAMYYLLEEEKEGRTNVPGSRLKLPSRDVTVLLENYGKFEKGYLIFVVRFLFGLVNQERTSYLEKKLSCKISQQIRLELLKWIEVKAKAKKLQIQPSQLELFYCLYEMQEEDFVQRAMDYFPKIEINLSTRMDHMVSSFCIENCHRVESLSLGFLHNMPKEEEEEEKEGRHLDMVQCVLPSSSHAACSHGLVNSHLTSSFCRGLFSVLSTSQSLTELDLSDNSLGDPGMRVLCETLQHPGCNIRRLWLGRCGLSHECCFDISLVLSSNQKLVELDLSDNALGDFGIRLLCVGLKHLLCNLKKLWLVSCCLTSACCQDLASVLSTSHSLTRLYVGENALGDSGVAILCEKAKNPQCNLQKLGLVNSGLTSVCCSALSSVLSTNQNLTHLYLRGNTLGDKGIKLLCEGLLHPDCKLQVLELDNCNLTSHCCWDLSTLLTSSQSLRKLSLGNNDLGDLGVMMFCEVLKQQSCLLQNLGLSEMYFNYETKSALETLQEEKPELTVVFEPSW

Turning to `C[C@@H]1CCN(c2nnn[nH]2)C[C@H](NC(=O)N(C)c2ccc(Cl)cc2)C1` (single isomer, unassigned) [4A*], the pIC50 reads like this: (Table B, activity class) over 8.00; (Table C) 8.17. The “fold improvement in potency (PBMC IC50)” value (relative to Comparative Example B1) was over 700 fold.
Turning to `C[C@@H]1CCN(c2nnn[nH]2)C[C@H](NC(=O)N(C)c2ccc(OC(F)F)cc2)C1` (single isomer, unassigned) [11A*], the pIC50 was over 8.00 (Table B, activity class) and 8.38 (Table C).
In the case of `C[C@@H]1CCN(c2nnn[nH]2)C[C@H](NC(=O)N(C)c2ccc(OC(F)(F)F)cc2)C1` (single isomer, unassigned) [10A*], the pIC50 is over 8.00 (Table B, activity class) and 8.04 (Table C).
